Where two headings read alike, the source gives them in different places.
How the values were obtained:
Panc-1 cells [1] = experiment: Propidium iodide-based fluorescence cytotoxicity assay; type: cell-based; conditions: single agent
Procedure: The combination of P276-00 and Gemcitabine was screened for its synergistic effect in Panc-1 cells using propidium iodide based fluorescence cytotoxicity assay.
Test System: The Panc-1 cell line was procured from ATCC (American Tissue type Culture Collection), USA. Catalog number: CRL-1469 and the frozen vial was stored in liquid nitrogen container. Propidium iodide dye was procured from Sigma-Aldrich, USA. Catalog number: P-4170-100 mg and it was stored at 2-8° C.
Method: Panc-1 cells were seeded at a density of 2000 cells/well, in a 200 μL in tissue culture grade 96 well plate and allowed to recover for 24 hrs in a humidified 5%±0.2 CO2 incubator at 37° C.±0.5° C. After 24 hrs, 1 μL of 200 X (200 times higher than required concentration is denoted as 200×) compound (dissolved in neat DMSO), as per Table 1 or 2 was added to the wells. The final DMSO concentration was 0.5% in wells. The plate was incubated for 24 hrs in humidified 5%±0.2 CO2 incubator at 37±0.5° C.
After 24 hrs Minimum Essential Medium (MEM) from the Gemcitabine treated wells was removed and washed two times with fresh MEM and followed by addition of 200 μL of fresh MEM per well. 1 μL of 200× (200 times higher than required concentration is denoted as 200×) compound (dissolved in neat DMSO) was then added as per the Table 1 and 2 designs. The final DMSO concentration was 0.5% in wells which also served as the vehicle control for the study. After 72 hrs the plate was removed from CO2 incubator and spent MEM aspirated from the wells and supplemented with fresh MEM. This was followed by addition of 25 μL of propidium iodide (50 μg/ml in medium) per well. The same plate was frozen at −80° C. for 24 hrs and then thawed and allowed to come to room temperature. The fluorescence at a wavelength of 530 nm excitation and 620 nm emission was read.
The percent cytotoxicity was calculated using the following formula

Panc1 cells = conditions: human
Panc-1 cells [2] = experiment: CCK-8 based cytotoxicity assay; type: cell-based; conditions: Gem 10 nM
Excerpt: CCK-8 based cytotoxicity assay is a sensitive nonradioactive colorimetric assay for determining the number of viable cells in cell proliferation and cytotoxicity assays. WST-8 (2-(2-methoxy-4-nitrophenyl)-3-(4-nitrophenyl)-5-(2,4-disulfophenyl)-2H tetrazolium, monosodium salt) is bioreduced by cellular dehydrogenases to an orange formazan product that is soluble in tissue culture medium. The amount of formazan produced is directly proportional to the number of living cells.
Test System: The Panc-1 cell line was procured from ATCC (American Tissue type Culture Collection USA, catalog number: CRL-1469) and the frozen vial was stored in liquid nitrogen container.
Panc-1 cells were seeded at a density of 3000 cells/well in a 96 well plate and allowed to recover for 24 hrs in a CO2 incubator at 37° C. […] The final DMSO concentration was 0.5% in wells. Plates were incubated for 24, 48, and 72 hrs. At the end of incubation CCK-8 was added and kept at 37° C. for 3 hrs following which absorbance was measured at 450 nm.

Compound | % Cytotoxicity (Panc-1 cells [1]; 60 nM) [%] | % Cytotoxicity (Panc-1 cells [1]; 120 nM) [%] | % Cytotoxicity (Panc-1 cells [1]; 240 nM) [%] | % Cytotoxicity (Panc-1 cells [1]; 480 nM) [%] | % Cytotoxicity (Panc-1 cells [1]; 960 nM) [%] | % Cytotoxicity in Panc1 cells (Panc1 cells; 6 h) [%] | % Cytotoxicity in Panc1 cells (Panc1 cells; 16 h) [%] | % Cytotoxicity in Panc1 cells (Panc1 cells; 36 h) [%] | cytotoxicity at 0.0001 µM (Panc-1 cells [1]; Homo sapiens, PANC-1, 0.1 nM) [%] | % Cytotoxicity (Panc-1 cells [2]; 24 hrs) [%] | % Cytotoxicity (Panc-1 cells [2]; 48 hrs) [%] | % Cytotoxicity (Panc-1 cells [2]; 72 hrs) [%] | % Cytotoxicity (Panc-1 cells [2]; 72 hrs, listed as Gem) [%]
CN1CC[C@@H](c2c(O)cc(O)c3c(=O)cc(-c4ccccc4Cl)oc23)[C@@H]1CO.Cl (relative stereo) [P276-00, (+)-trans-2-(2-Chloro-phenyl)-5,7-dihydroxy-8-(2-hydroxy-methyl-1-methyl-pyrrolidin-3-y1)-chromen-4-one hydrochloride] | 27 | 33 | 35 | 45 | 58 |  |  |  |  |  |  |  | 
Nc1ccn([C@@H]2O[C@H](CO)[C@@H](O)C2(F)F)c(=O)n1 [Gemcitabine, 2′, 2′-difluorodeoxycytidine] |  |  |  |  |  | 2.31 | 6.54 | 7.23 | 10 | 21.997 | 27.571 | 31.47 | 31.471
